Key:
[1] = system: Cancer patients suffering from intolerable pain; test: intraspinal and intraventricular injection and infusion in cancer patients with intolerable pain; type: in vivo; details: humans, intraspinal or intraventricular route
Protocol: Cancer patients suffering from intolerable pain in the final stage of post-operative pain were given 250 μg of somatostatin as an injection and thereafter 10 to 50 μg/hour of somatostatin as an infusion, in part via the intraspinal route and in part via the intraventricular route.

dogs = test: investigation with dogs, analgesia test according to Cohen (heated plate); type: in vivo
humans = test: preliminary experiments with humans, peridural application; type: in vivo
[2] = in vivo; cited from earlier work
[3] = penetration of the dura into the liquor upon peridural application; type: in vivo
rats = details: intracerebroventricular infusion; cited from earlier work
[4] = intradural or intraspinal injections or infusions, anesthetic effect; type: in vivo

C[C@H](N)C(=O)NCC(=O)N[C@H]1CSSC[C@@H](C(=O)O)NC(=O)[C@H](CO)NC(=O)[C@H]([C@@H](C)O)NC(=O)[C@H](Cc2ccccc2)NC(=O)[C@H]([C@@H](C)O)NC(=O)[C@H](CCCCN)NC(=O)[C@H](Cc2c[nH]c3ccccc23)NC(=O)[C@H](Cc2ccccc2)NC(=O)[C@H](Cc2ccccc2)NC(=O)[C@H](CC(N)=O)NC(=O)[C@H](CCCCN)NC1=O [somatostatin]
analgesia ([1]; 250 μg injection then 10 to 50 μg/hour infusion): marked analgesia, comparable to that of morphine
tolerability of the infusions ([1]; 10 to 50 μg/hour infusion): tolerated without any occurring side-effects for a period of over two weeks
signs of pain (dogs; dog having a large decubitus): showed no signs of pain
duration of analgesic activity (dogs; dogs): maintained for several weeks
sedation and behavior (dogs; dogs): had not been put under sedation and showed a balanced behavior
side effects (dogs; dogs): No side effects were apparent
period for which heated plate was tolerated (dogs; dogs, all animals, heated plate of 60° C., analgesia test according to Cohen): 5 s
analgesic effectiveness (humans; peridural application of 125 μg): analgesically effective
analgesic effectiveness (humans; peridural application of 250 μg): analgesically effective
half-life [2]: 2 to 4 min
penetration of the dura [3]: capable of rapidly (and to a high degree) penetrating the dura
analgesic effect (rats): a short-term analgesic effect was found
anesthetic effects [4]: have anesthetic effects
